The text below walks through data of US20240254536A1, “[…] ARRAY AND USES THEREOF” (DrugArray, Inc., priority 2021, published 2024).

This assay has as its system E. coli. The assay can be described thus: pin array antibiotic susceptibility assay (zones of inhibition) on LB agar plates. To be noted: 7×7 pin array. It is filed as cell-based. On the procedure:
1. Cell Introduction: E. coli resuspension were plated onto LB agar plates and incubated at 37° C. until the cells reach desired condition.
2. Pin array preparation: Two 7×7 pin arrays were loaded with ampicillin from 0.2 μg to 4 μg according to the configurations shown in FIGS. 5B and 6B, respectively.
3. Treatment: After the cells reach the desired condition, the pin arrays loaded with ampicillin according to the configurations shown in FIGS. 5B and 6B were coupled to LB agar plates with E. coli culture. The LB agar plates were incubated at 37° C.
2. Pin array preparation: Two 7×7 pin arrays were loaded with ampicillin from 0.4 μg to 4 μg according to the configurations shown in FIGS. 7A and 7B, respectively.
3. Treatment: After the cells reach the desired condition, the pin arrays loaded with ampicillin according to the configurations shown in FIGS. 7A and 7B were coupled to LB agar plates with E. coli culture. The LB agar plates were incubated at 37° C., and stored overnight at 4° C. and in Styrofoam box with ice packs, respectively.
2. Pin array preparation: A 7×7 pin array was loaded with ampicillin from 0.4 μg to 4 μg according to the configurations shown in FIG. 8A.
3. Treatment: After the cells reach the desired condition, the pin array loaded with ampicillin according to the configurations shown in FIG. 8A was coupled to an LB agar plate with E. coli culture. The LB agar plate was incubated at 37° C., and images of the plates were taken at the same day (FIG. 8A), and after 5 weeks at 4° C. (FIG. 8B).

Regarding `CC1(C)S[C@@H]2[C@H](NC(=O)[C@H](N)c3ccccc3)C(=O)N2[C@H]1C(=O)O` [ampicillin], the zones of inhibition result is, setting by setting: (ampicillin 0.2 μg to 4 μg, configuration of FIG. 5B, 37° C. (FIG. 5A)) “well-defined, and a dose-dependent manner of the sizes of the zones”; (ampicillin 0.2 μg to 4 μg, configuration of FIG. 6B, 37° C. (FIG. 6A)) “well-defined, dose-dependent zones of inhibition”; (ampicillin 0.4 μg to 4 μg, after 5 weeks of storage at 4° C. (FIG. 8B)) “smaller zones of inhibition”; (ampicillin 0.4 μg to 4 μg, image taken the same day (FIG. 8A)) “Well-defined, dose-dependent zones of inhibition”; (ampicillin 0.4 μg to 4 μg, stored overnight at 4° C. (FIG. 7A)) “Well-defined, dose-dependent zones of inhibition”; (ampicillin 0.4 μg to 4 μg, stored overnight in Styrofoam box with ice packs (FIG. 7B)) “Well-defined, dose-dependent zones of inhibition”.
